According to article PMC9127750, “Structure-based design of CDC42 effector interaction inhibitors for the treatment of cancer” (Cell reports, 2022):
“And” between values parts separate entries of the source, which are not always exact repeats. Equal entries are not always repeated.

System: WM3248 melanoma cells, 486 antibodies
Assay: Reverse phase protein arrays (RPPA)
Assay type: cell-based, Human
Text: Pellets were snap frozen in liquid nitrogen and shipped to MD Anderson Cancer Center core RPPA facility for RPPA analysis (Table S5). Three biological replicates for each sample were generated.
Nomenclatures on the RPPA heatmaps: name_of_antibody.species_of_antibody.status_of_antibody. V - antibody validated; C - validation of antibody in progress; Q - antibody nonspecific; E – under evaluation; antibodies raised in M - mouse, G - goat, R - rabbit, or T - rat.

[1] = level 10 normalized to 0, mean of 3

## CN(C)c1cccc(Nc2cc(-c3ccccc3)nc(C3CCNCC3)n2)c1 [ARN22089, N1,N1-dimethyl-N3-(6-phenyl-2-(piperidin-4-yl)pyrimidin-4-yl)benzene-1,3-diamine]
Level 5 vs 0, replicates
  INPP4b.R.C Norm_5: 0.976 and 1.019
  IR.b.R.C Norm_5: 1.056 and 1.010
  IRF.1.R.V Norm_5: 0.974 and 0.981 and 1.030
  IRF.3.R.V Norm_5: 0.924 and 0.890 and 0.996
  IRS1.R.V Norm_5: 1.029 and 1.046 and 0.995
  IRS2.R.C Norm_5: 1.195 and 0.736 and 1.046
  JAB1.M.C Norm_5: 0.954 and 0.981 and 0.972
  JNK2.R.V Norm_5: 0.643 and 1.507
  JNK_pT183_Y185.R.C Norm_5: 1.060 and 0.929 and 0.988
  Jagged1.R.V Norm_5: 1.010 and 1.054 and 0.889
  Jak2.R.V Norm_5: 0.979 and 0.991
  KAP1.R.V Norm_5: 1.116 and 1.063 and 1.099
  KEAP1.R.V Norm_5: 1.026 and 0.913 and 0.925
  LAD1.R.V Norm_5: 0.952 and 0.910 and 1.029
  LC3A.B.R.C Norm_5: 1.119 and 0.843
  LCN2.R.V Norm_5: 1.996 and 0.913 and 0.985
  LDHA.R.C Norm_5: 1.253 and 1.735 and 0.318
  LRP6_pS1490.R.V Norm_5: 1.015 and 1.011 and 1.114
  Lasu1.R.V Norm_5: 0.982 and 1.009 and 0.926
  Lck.R.V Norm_5: 1.005 and 1.060 and 0.966
  Lyn.R.V Norm_5: 0.801 and 0.941 and 0.791
  MACC1.R.V Norm_5: 0.899 and 0.883 and 1.061
  MAPK_pT202_Y204.R.C Norm_5: 1.017 and 0.736 and 0.856
  MCT4.R.V Norm_5: 1.005 and 0.979 and 1.159
  MDM2_pS166.R.V Norm_5: 1.021 and 1.261 and 0.787
  MEK1.R.V Norm_5: 1.082 and 0.785 and 1.201
  MEK1_pS217_S221.R.V Norm_5: 0.926
  MEK2.R.V Norm_5: 1.048 and 1.127 and 0.942
  MERIT40.R.C Norm_5: 0.988 and 1.019 and 0.961
  MERIT40_pS29.R.V Norm_5: 1.133 and 1.001
  METTL3.R.V Norm_5: 0.968 and 1.099 and 0.891
  MIF.R.C Norm_5: 0.931 and 0.965 and 0.948
  MIG6.R.V Norm_5: 0.932 and 0.886 and 1.000
  MITF.R.V Norm_5: 0.975 and 1.014
  MLH1.M.V Norm_5: 0.900 and 0.937 and 0.942
  MLKL.R.V Norm_5: 0.966 and 0.982 and 0.886
  MMP2.R.V Norm_5: 0.925 and 0.948 and 0.967
  MMP14.R.V Norm_5: 1.097 and 1.257
  MR1.M.C Norm_5: 0.897 and 0.992
  MRAP.R.C Norm_5: 1.109 and 1.057 and 0.987
  MSH2.R.C Norm_5: 0.939 and 1.022 and 0.901
  MSH6.R.C Norm_5: 1.190 and 0.909
  MSI2.R.C Norm_5: 1.108 and 1.110 and 1.024
  MTCO1.M.V Norm_5: 0.944 and 0.964 and 1.334
  MTSS1.M.C Norm_5: 0.924 and 0.926 and 1.000
  Mcl.1.R.V Norm_5: 0.943 and 0.925 and 1.013
  MelanA.R.C Norm_5: 0.973 and 1.097
  Melanoma.gp100.R.C Norm_5: 1.016
  Merlin.R.C Norm_5: 1.257 and 0.725
  Midkine.R.V Norm_5: 0.866 and 0.942 and 0.987
  Mitofusin.1.R.V Norm_5: 1.058 and 0.973
  Mitofusin.2.R.V Norm_5: 0.945
  Mnk1.R.V Norm_5: 1.014 and 0.983
  mTOR.R.V Norm_5: 1.006 and 1.101 and 0.990
  mTOR_pS2448.R.C Norm_5: 1.104 and 1.133 and 1.002
[1]
  TSC1.R.C Norm_10 Average: 0.899
  TTF1.R.V Norm_10 Average: 1.078
  TUFM.R.V Norm_10 Average: 1.221
  Tuberin.R.V Norm_10 Average: 0.835
  Tuberin_pT1462.R.V Norm_10 Average: 1.064
  Twist.M.C Norm_10 Average: 1.019
  Tyro3.R.V Norm_10 Average: 1.386
  U.Histone.H2B.R.C Norm_10 Average: 0.890
  UBAC1.R.V Norm_10 Average: 1.014
  UBQLN4.M.C Norm_10 Average: 0.961
  UGT1A.M.V Norm_10 Average: 1.050
  UQCRC2.M.C Norm_10 Average: 1.112
  UVRAG.R.C Norm_10 Average: 0.935
  VASP.R.V Norm_10 Average: 0.873
  VAV1.R.C Norm_10 Average: 0.923
  VEGFR.2.R.V Norm_10 Average: 0.957
  VEGFR.2_pY1175.R.C Norm_10 Average: 0.964
  VHL.EPPK1.M.C Norm_10 Average: 1.030
  VHL.R.C Norm_10 Average: 0.986
  Vinculin.M.V Norm_10 Average: 0.988
  WIPI1.R.C Norm_10 Average: 1.318
  WIPI2.R.C Norm_10 Average: 0.944
  WTAP.R.V Norm_10 Average: 1.224
  Wee1.R.C Norm_10 Average: 0.915
  Wee1_pS642.R.C Norm_10 Average: 0.900
  XBP.1.G.C Norm_10 Average: 1.193
